{"source": "patent US5380759A", "about": "“Methyl N-[6-(3,4,5-trimethoxybenzloxy)imidazo[1,2-b]pyridazin-2-zyl]carbamate used to treat leukemia” (priority 1987, dated 1995)", "key": {"tubulin": {"tested_on": "tubulin", "experiment": "Turbidimetric assay of tubulin polymerisation", "format": "biochemical, horse", "details": "37° C., increase in A350nm 10 min after lag phase; read-out: Total tubulin polymerisation IC50", "method": "A) Tubulin Polymerisation Assay\n1. Preparation of tubulin\nAll manipulations are performed at 4° C. unless otherwise specified. The horse brain is washed in ice-cold BBG buffer and superficial meninges and blood vessels removed. After weighing, cerebral cortices are chopped, homogenised in 75 ml BBG buffer/100 g brain, centrifuged at 6500 g for 15 min and after removal of […], re-centrifuged at 100,000 g for 75 min. The volume of the supernatant (Vml) is measured and V/10 ml 10 mM GTP (Li salt) in H2 O added. The mixture is incubated in sealed centrifuge tubes (30 min, 34° C.) in a shaking water bath to polymerise the tubulin. After polymerisation the tubes are balanced and centrifuged at 100,000 g, (1 h at 27° C.) in a pre-warmed rotor. The high-speed pellet is resuspended in V/4 ml BB buffer and the preparation stirred on ice for 30 min and centrifuged at 100,000 g (1 h at 4° C.) to remove the cold-stable microtubules. An equal volume of BB2G buffer is added to the supernatant which is frozen rapidly in 5 ml samples in plastic weighing dishes floated on a solid CO2 /ethanol slurry, and stored overnight at -80° C. After ca. 18 hours the frozen samples of tubulin are thawed, 10 mM GTP in H2 O added to give a final concentration of 1 mM, and the new volume (Wml), is measured. The polymerisation/depolymerisation cycle is repeated exactly as above but substituting W for V to give twice-cycled tubulin.\n2. Turbidimetric Assay of Tubulin Polymerisation\nApparatus: recording spectrophotometer with a 6-position, thermostatted cuvette holder; full scale deflection=0.2 absorbance units.\nIn a 1 ml spectrophotometer cuvette are mixed 100 μl 10 mM GTP (Li salt) made up in BB buffer, 10 μl H2 O or DMSO-depending on selected drug solvent, BB buffer and tubulin preparation such that the final increase in A350nm is 0.15 units after 16 mins (approx. 100 μl of tubulin prep. or 2.5 mg protein) in a final volume of 1 ml at 37° C. All reagents are stored on ice.\nPolymerisation is initiated by raising the temperature to 37° C. and the increase in A350nm of triplicate samples against a reference cuvette is recorded. The reference sample includes a similar incubation mixture either without tubulin or with the addition of 1 mM Ca^2+. The increase over initial A350nm 10 min after the completion of lag phase (control polymerisation is 80% complete within this time) is calculated and expressed as a percentage of the control value, for a range of drug concentrations. The drug concentration required to give a 50% change (IC50) in the control value is determined."}, "P388 D1 cells": {"tested_on": "P388 D1 cells", "experiment": "P388 D1 colony-forming assay", "format": "cell-based", "details": "Mus musculus, P388D1; 24 h exposure, 14 days colony growth; read-out: IC50 colony formation", "method": "B) P338D1 Colony-forming Assay\nIn this assay, cells from an in vitro-adapted line of the mouse lymphoid neoplasm, P388 are first exposed to serially diluted concentrations of test compound over a 24 hour period in culture. Thereafter, the ability of such treated cells to form discrete colonies over a 14 day period after resuspension in a semi-solid drug-free medium is determined.\nInitially cells in log growth are plated into individual 25 cm^2 tissue culture flasks each containing a final volume of 5 mls of Hepes buffered RPMI 1640 culture medium supplemented with 10 percent foetal calf serum, antibiotics and test compound. All compounds are formulated initially at appropriate concentrations in DMSO, 25 microliters of which is then added to each flask. All compounds are evaluated at concentrations ranging serially in four fold decrements from a top concentration some four fold greater than that already known to inhibit the proliferation of these cells by about 80 to 90 percent in the primary proliferative assay.\nAfter 24 hrs exposure to the test compound the cells are counted and a known number of live cells transferred to a 15 ml centrifuge tube to which 4 mls of a 0.25 percent low temperature gelling agarose solution in complete RPMI tissue culture medium is then added. After 13 days incubation at 37° C., 1 ml of 1% p-Iodonitrotetrazolium violet is added to the top of each tube and allowed to permeate through the agarose for a further 24 to 48 hrs. This dye is metabolised by living cells to produce an insoluble red crystalline product which facilitates counting of the colonies. Samples are taken from each tube and the number of colonies containing a minimum of 50 cells is determined. The concentration of compound necessary to inhibit colony formation by 50 percent relative to that of control cells incubated under identical conditions but in the absence of the test compound is determined."}, "P388/BCNU": {"tested_on": "P388/BCNU", "experiment": "In vivo activity against drug resistant tumour P388/BCNU", "set-up": "species or system mouse", "details": "optimum dose 7.5 mg/kg", "method": "(§1) CD2-F1 mice, of the same sex, weighing within a 3 gram range surrounding 20 g, are used for this test. Control and test animals are injected intraperitoneally with a suspension of 10^6 viable P388/O tumour cells on day 0. In each test several dose levels which bracket the LD20 for the compound are evaluated; each dose level group contains 6 animals. The test compounds are prepared either in physiologic saline containing 0.05% Tween 80 or distilled water containing 5% dextrose and are administered intraperitoneally on days 1,5 and 9 relative to tumour implant. Doses are on a mg/kg basis according to individual animals' body weights. The day of death for each animal is recorded and the median day of death identified for each group. The difference between the median survival time for treated and control groups is expressed as a percentage increase in life span (% ILS).\n(§2) E. Activity Against Drug-Resistant Tumours\nUsing a similar procedure to the Lymphocytic Leukaemia P388/O test, the compound of Example 1 was evaluated against P388/O tumours which had been made resistant to the following standard, clinically used anti-tumour agents:\nbis-chloronitrosourea (BCNU)"}, "P388/5FU": {"tested_on": "P388/5FU", "experiment": "In vivo activity against drug resistant tumour P388/5FU", "set-up": "species or system mouse", "details": "optimum dose 10.0 mg/kg", "method": "as §1, §2\n(§3) Using a similar procedure to the Lymphocytic Leukaemia P388/O test, the compound of Example 1 was evaluated against P388/O tumours which had been made resistant to the following standard, clinically used anti-tumour agents: […]"}, "M5076": {"tested_on": "M5076", "experiment": "In vivo activity against murine tumour M5076", "set-up": "species or system mouse", "details": "5 mg/kg i.p. days 1, 5 and 9; 1 expt", "method": "as §1\nG. In vivo activity of the compound of Example 1 against murine tumours\nUsing a similar procedure to the Lymphocytic Leukaemia P388/O test the compound of Example 1 was evaluated against the murine tumours B16, L1210 and M5076. A suspension of 10^6 tumour cells is implanted intraperitoneally into control and test animals on day zero. B16 tumour cells are administered intraperitoneally as a 1:10 Brei of cells on day zero. […] The day of death for each animal is recorded and the %ILS (percentage increase in life-span) calculated."}, "strains of P388": {"tested_on": "strains of P388", "experiment": "In vivo activity against strains of P388 resistant to major clinically used anti-tumour agents", "set-up": "species or system mouse", "details": "resistant to cyclophosphamide, methotrexate, actinomycin D, vincristine, adriamycin, 5-fluorouracil, cis-platinum, bis-chloronitrosourea and amsacrine", "method": "as §1, §2, §3"}}, "data": [{"smiles": "COC(=O)Nc1cn2nc(OCc3cc(OC)c(OC)c(OC)c3)ccc2n1", "note": "[Example 1, Methyl N-[6-(3,4,5-trimethoxybenzyloxy)imidazo[1,2-b]pyridazin-2-yl]carbamate]", "values": [{"measurement": "IC50", "setting": "tubulin", "value": 420, "unit": "nM"}, {"measurement": "IC50", "setting": "P388 D1 cells", "value": 13.2, "unit": "nM"}, {"measurement": "60 Day Survivors", "setting": "P388/BCNU", "value": "0/6"}, {"measurement": "% ILS", "setting": "P388/BCNU", "value": "+131%"}, {"measurement": "60 Day Survivors", "setting": "P388/5FU", "value": "0/6"}, {"measurement": "% ILS", "setting": "P388/5FU", "value": "+92%"}, {"measurement": "Mean % ILS (±SEM)", "setting": "M5076", "value": 28, "unit": "%"}, {"measurement": "activity in vivo against resistant strains of P388", "setting": "strains of P388", "value": "good activity in vivo"}]}]}
